The source of these data is US4575560A, “Insecticidal diaminoguanidine hydrazone compounds” (American Cyanamid Company, priority 1985, dated 1986).

In brackets after ≈: the same amount, converted by molar mass. Read-outs that look alike come from different tables or passages of the source.

In one test the test system is Tobacco Budworm. In words: Tobacco budworm LC50 and FD50 (instar not stated). It is filed as in vivo, Heliothis virescens (Fabricus). The text has this: (§1) Test formulations and procedures used for evaluation are as follows:
FD50 = The concentration of insecticide required to reduce insect

A further test concerns Southern Armyworm. In words: Southern armyworm test, third-instar larvae on treated Sieva lima bean leaves. It counts as in vivo, Spodoptera eridania (Cramer). An outline of the steps:
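Sieva lima bean plants, primary leaves expanded to 1.91 cm, were dipped with agitation for three seconds in test material dissolved in 65% acetone, with further dilutions in acetone, then air-dried in a hood. A treated leaf was placed in a 9 cm petri dish on moist filter paper with 10 third-instar Spodoptera eridania larvae about 1 cm long. Dishes were covered and kept at 80° F. and 50% r.h. Mortality and feeding were assessed after two days.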

Test [1] deals with Tobacco Budworm 1st Instar. As to the kind of experiment: Tobacco budworm initial test, treated eggs / newly hatched (1st instar) larvae on treated cotton leaves. It counts as in vivo, Heliothis virescens (Fabricus). How it is done:
as §1
A. 100 mg of the test material is weighed, placed in a funnel over a 113 g narrow-mouth bottle, rinsed into the bottle with a 35 mL scoop of acetone, followed by a 35 mL scoop of water and another 35 mL scoop of acetone to yield 1000 ppm in 65% acetone. If the material is not soluble, it is broken up with a glass rod and used as a suspension.
B. This stock solution ("A") is used to make 300 ppm solutions or suspensions by pipetting 30 mL of "A" into a bottle containing 70 mL of 50% acetone to yield 300 ppm. Further dilutions in 50% acetone are made as required.
C. Tests requiring 10 ppm acetone solutions: 1 mL of "A" is pipetted into 99 mL of acetone to yield 10 ppm. Additional dilutions are made using 50% acetone as required.
Tobacco Budworm--Heliothis virescens (Fabricus)
A cotton plant with two true leaves expanded is dipped for three seconds with agitation in 300 ppm solution. A 1.27 to 1.91 cm square of cheesecloth with about 50 to 100 budworm eggs 0-24 hours old is also dipped in the test solution and placed on a leaf of the cotton plant, all being placed in the hood to dry. The leaf with the treated budworm eggs is removed from the plant and placed in a 226 g Dixie cup with a wet 5 cm piece of dental wick and covered with a lid. The other leaf is placed in a similar cup with a wick and a piece of cheesecloth infested with 50-100 newly hatched larvae is added before covering the cup with a lid. After three days at 80° F., 50% relative humidity, observations of egg hatch are made, as well as kill of newly hatched larvae, any inhibition of feeding, or interference of any sort with normal development.

Test [2] relates to Tobacco Budworm 3rd Instar. As to the kind of experiment: Tobacco budworm secondary test, third-instar larvae on treated cotton cotyledons. It counts as in vivo, Heliothis virescens (Fabricus).
[3] abbreviates: Heliothis virescens, read-out: LC50 Tobacco Budworm.

What is called LC50 is the concentration that kills 50% of the test population. Take `CN(C)C(=O)N(N=Cc1ccc(C(F)(F)F)cc1)C(=N)NN=Cc1ccc(C(F)(F)F)cc1` [CF3 / CF3 / CH3 / CH3]: the 50% lethal concentration (LC50) in the test with Tobacco Budworm (Heliothis virescens; read-out: LC50 Tobacco Budworm) turned out to be 96 µg/mL (≈ 203 µM); in the test with Southern Armyworm (Spodoptera eridania; read-out: LC50 Southern Armyworm), 15 µg/mL (≈ 31.8 µM). The “Mortality Rating Southern Armyworm” value is recorded as 8 (86-99%) with Southern Armyworm (10 ppm, third-instar larvae); 9 (100%) in the test on Southern Armyworm (100 ppm, third-instar larvae); 9 (100%) with Southern Armyworm (1000 ppm, third-instar larvae). Further, the “Mortality Rating Tobacco Budworm 1st Instar” value in test [1] (10 ppm) was 0 (No effect); in test [1] (100 ppm), 6 (66-75%); in test [1] (300 ppm), 8 (86-99%). Besides, the “Mortality Rating Tobacco Budworm 3rd Instar” value in test [2] (10 ppm) is given as 0 (No effect); in test [2] (100 ppm), 9 (100%); in test [2] (1000 ppm) it was 9 (100%).

Consider `N=C(NN=Cc1ccc(C(F)(F)F)cc1)N(N=Cc1ccc(C(F)(F)F)cc1)C(=O)NCCCl` [CF3 / CF3 / ClCH2 CH2 / H, allophanimidic acid, 4-(2-chloroethyl)-2-{[p-(trifluoromethyl)benzylidene]amino}-allophanimidicacid [p-(trifluoromethyl)benzylidene]hydrazide], for which the LC50 with Tobacco Budworm (setting [3]) came to 654 µg/mL (≈ 1290 µM). For the same compound, the “Mortality Rating Southern Armyworm” value in the test on Southern Armyworm (100 ppm, third-instar larvae) is recorded as 9 (100%); in the test with Southern Armyworm (1000 ppm, third-instar larvae), 9 (100%). The “Mortality Rating Tobacco Budworm 1st Instar” value in test [1] (300 ppm) is given as 0 (No effect). The “Mortality Rating Tobacco Budworm 3rd Instar” value is recorded as 4 (46-55%) in test [2] (100 ppm) and 9 (100%) in test [2] (1000 ppm).

Turning to `CN(C)C(=O)N(N=Cc1ccc(OC(F)(F)C(F)F)cc1)C(=N)NN=Cc1ccc(OC(F)(F)C(F)F)cc1` [HCF2 CF2 O / HCF2 CF2 O / CH3 / CH3, 4,4-dimethyl-2-{[p-(1,1,2,2-tetrafluoroethoxy)benzylidene]amino}-allophanimidic acid [p-(1,1,2,2-tetrafluoroethoxy)benzylidene]hydrazide], the LC50 with Tobacco Budworm (setting [3]) is 491 µg/mL (≈ 864 µM); with Southern Armyworm (Spodoptera eridania, read-out: LC50 Southern Armyworm), 7 µg/mL (≈ 12.3 µM). Besides, the “Mortality Rating Southern Armyworm” value is 0 (No effect) in the test with Southern Armyworm (10 ppm, third-instar larvae); 9 (100%) with Southern Armyworm (100 ppm, third-instar larvae); 9 (100%) in the test with Southern Armyworm (1000 ppm, third-instar larvae). The “Mortality Rating Tobacco Budworm 1st Instar” value in test [1] (100 ppm) was 5 (56-65%); in test [1] (300 ppm), 9 (100%). For the same compound, the “Mortality Rating Tobacco Budworm 3rd Instar” value is listed as 2 (26-35%) in test [2] (100 ppm) and 8 (86-99%) in test [2] (1000 ppm).
